Experimental data: patent publication US9750759B2, “Antitumoral compounds” (priority 2008, dated 2017)
Read-outs that look alike come from different tables or passages of the source.

What was measured:
Test in all cases: cells
Format in all cases: cell-based
A549 = settings: Homo sapiens; for GI50: concentration that produces 50% growth inhibition; for IC (total growth inhibition): read-out: TGI
Excerpt: (§1) The aim of this assay is to evaluate the in vitro cytostatic (ability to delay or arrest tumor cell growth) or cytotoxic (ability to kill tumor cells) activity of the samples being tested.
(§2) A colorimetric type of assay, using sulforhodamine B (SRB) reaction has been adapted for a quantitative measurement of cell growth and viability (following the technique described by Skehan P et al. J. Natl. Cancer Inst. 1990, 82, 1107-1112).
(§3) This form of assay employs SBS-standard 96-well cell culture microplates (Faircloth et al. Methods in cell science, 1988, 11(4), 201-205; Mosmann et al, Journal of Immunological. Methods, 1983, 65(1-2), 55-63). All the cell lines used in this study, derived from different types of human cancer, were obtained from the American Type Culture Collection (ATCC).
(§4) Cells were maintained in Dulbecco's Modified Eagle Medium (DMEM) supplemented with 10% Fetal Bovine Serum (FBS), 2 mM L-glutamine, 100 U/mL penicillin and 100 U/mL streptomycin at 37° C., 5% CO2 and 98% humidity. For the experiments, cells were harvested from subconfluent cultures using trypsinization and resuspended in fresh medium before counting and plating.
(§5) Cells were seeded in 96 well microtiter plates at 5×10^3 cells per well in aliquots of 150 μL, and allowed to attach to the plate surface for 18 hours in drug free medium. One control (untreated) plate of each cell line was fixed (as described below) and used for time zero reference value. Afterwards, test samples were added to the cultures in ten serial dilutions, in aliquots of 50 μL, ranging from 10 to 0.00262 μg/mL. After 48 hours exposure, the antitumor effect was estimated by the SRB method: Briefly, cells were washed twice with PBS, fixed for 15 min in 1% glutaraldehyde solution, rinsed twice in PBS, and stained in 0.4% SRB solution for 30 min at room temperature. Cells were then rinsed several times with 1% acetic acid solution and air-dried. SRB was then extracted in 10 mM trizma base solution and the absorbance measured in an automated spectrophotometric plate reader at 490 nm. Cell survival was expressed as percentage of control cell growth. The final effect of the sample being tested was estimated by applying the NCI algorithm (Boyd M R and Paull K D. Drug Dev. Res. 1995, 34, 91-104).
(§6) Using the mean±SD of triplicate cultures, a dose-response curve was automatically generated using nonlinear regression analysis. Three reference parameters were calculated (NCI algorithm) by automatic interpolation: GI50=concentration that produces 50% growth inhibition; TGI=total growth inhibition (cytostatic effect) and LC50=concentration that produces 50% net cell killing (cytotoxic effect).

HT29 = settings: Homo sapiens; for GI50: concentration that produces 50% growth inhibition; for IC (total growth inhibition): total growth inhibition (cytostatic effect), read-out: TGI
Excerpt: as §1, §2, §3, §4, §5, §6

MDA-MB-231 = settings: Homo sapiens; for GI50: concentration that produces 50% growth inhibition; for IC (total growth inhibition): read-out: TGI
Excerpt: as §1, §2, §3, §4, §5, §6

[1] = A549, 48 hours exposure, total growth inhibition (cytostatic effect)
[2] = MDA-MB-231, 48 h, read-out: LC50
[3] = MDA-MB-231, 48 hours exposure, total growth inhibition (cytostatic effect)
[4] = A549, 48 hours exposure, concentration that produces 50% net cell killing, read-out: LC50 (the source's name)
[5] = HT-29, HT29, 48 hours exposure, concentration that produces 50% net cell killing, read-out: LC50 (the source's name)
[6] = MDA-MB-231, 48 hours exposure, concentration that produces 50% net cell killing, read-out: LC50 (the source's name)

SMILES | CC50 (A549; A549, 48 h, read-out: LC50) | GI50 (A549; A549, 48 hours exposure) | IC (total growth inhibition) (A549; [1]) | CC50 (HT29; HT-29, 48 h, read-out: LC50) | GI50 (HT29; HT-29, HT29, 48 hours exposure) | IC (total growth inhibition) (HT29; HT-29, HT29, 48 hours exposure) | CC50 (MDA-MB-231; [2]) | GI50 (MDA-MB-231; MDA-MB-231, 48 hours exposure) | IC (total growth inhibition) (MDA-MB-231; [3]) | IC (total growth inhibition) (MDA-MB-231; MDA-MB-231, 48 h) | CC50 (A549; [4]) | CC50 (HT29; [5]) | CC50 (MDA-MB-231; [6]) | IC (total growth inhibition) (A549; A549, 48 h)
COC1=CC[C@@H]([C@@H](C)/C=C(C)/C=C\C=C/C(=O)N[C@H](C(=O)N/C=C\C[C@H](C/C=C(\C)Cl)OC(N)=O)C(C)(C)C)O[C@H]1O [Compound 85] | > 16.4 nM | 0.723 nM | 0.00164 µM | 1.97 nM | 0.345 nM | 0.000625 µM | > 16.4 nM | 1.02 nM | 0.00181 µM | – | – | – | – | –
C/C=C\C[C@@H](C/C=C\NC(=O)[C@@H](NC(=O)C#C/C=C\C(C)=C\[C@H](C)[C@@H]1CC=C(OC)C(=O)O1)C(C)(C)C)OC(N)=O [Compound 81] | > 17600 nM | 2280 nM | 8.43 µM | > 17600 nM | 1260 nM | 2.98 µM | > 17600 nM | 2980 nM | – | > 17.6 µM | – | – | – | –
COC1=CC[C@@H]([C@@H](C)/C=C(C)/C=C\C#CC(=O)N[C@H](C(=O)N/C=C\C[C@H](C/C=C(\C)Cl)OC(N)=O)C(C)C)OC1=O [Compound 66b] | > 16900 nM | 25.4 nM | 0.0813 µM | 42.4 nM | 22 nM | 0.0288 µM | 4580 nM | 27.1 nM | 0.373 µM | – | – | – | – | –
COC1=CC[C@@H]([C@@H](C)/C=C(C)/C=C\C#CC(=O)N[C@H](C(=O)N/C=C\C[C@@H](O)C/C=C(\C)Cl)C(C)(C)C)OC1=O [Compound 65a] | 11800 nM | 3390 nM | 6.24 µM | 7310 nM | 1780 nM | 3.03 µM | > 17800 nM | 3560 nM | 9.98 µM | – | – | – | – | –
COC1=CC[C@@H]([C@@H](C)/C=C(C)/C=C\C#CCCC(=O)N[C@H](C(=O)N/C=C\C[C@@H](O)C/C=C(\C)Cl)C(C)(C)C)OC1=O [Compound 99] | 12200 nM | 3060 nM | 6.62 µM | 5770 nM | 900 nM | 2.21 µM | 13200 nM | 2720 nM | 6.11 µM | – | – | – | – | –
CC#CC[C@@H](C/C=C\NC(=O)[C@@H](NC(=O)\C=C/C=C\C(C)=C\[C@H](C)[C@@H]1CC=C(OC)C(=O)O1)C(C)(C)C)OC(N)=O [Compound 72] | > 176 nM | 0.176 nM | 0.00281 µM | > 176 nM | 0.0579 nM | 0.000125 µM | > 176 nM | 0.246 nM | 0.00193 µM | – | – | – | – | –
COC1=CC[C@@H]([C@@H](C)/C=C(C)/C=C\C#CC(=O)N[C@H](C(=O)N/C=C\C[C@H](C/C=C(\C)Cl)O[Si](C)(C)C(C)(C)C)C(C)(C)C)OC1=O [Compound 64a] | – | 4440 nM | > 14.8 µM | – | 2220 nM | 4.29 µM | – | 4890 nM | > 14.8 µM | – | > 14800 nM | > 14800 nM | > 14800 nM | –
COC1=CC[C@@H]([C@@H](C)/C=C(C)/C=C\C#CC(=O)N[C@H](C(=O)N/C=C\C[C@@H](O)C/C=C(\C)Cl)C(C)C)OC1=O [Compound 65b] | > 18300 nM | 311 nM | 1.81 µM | > 18300 nM | 183 nM | 0.494 µM | > 18300 nM | 548 nM | – | > 18.3 µM | – | – | – | –
C/C=C\C[C@@H](C/C=C\NC(=O)[C@@H](NC(=O)\C=C/C=C\C(C)=C\[C@H](C)[C@@H]1CC=C(OC)[C@H](O)O1)C(C)(C)C)OC(N)=O [Compound 89] | 0.819 nM | 0.138 nM | 0.000279 µM | 0.227 nM | 0.0802 nM | 0.000127 µM | > 1.74 nM | 0.296 nM | – | > 0.00174 µM | – | – | – | –
COC1=CC[C@@H]([C@@H](C)/C=C\C=C/C(=O)N[C@H](C(=O)N/C=C\C[C@H](C/C=C(\C)Cl)OC(N)=O)C(C)(C)C)OC1=O [Compound 69] | > 17700 nM | 230 nM | – | > 17700 nM | 173 nM | 0.424 µM | 8130 nM | 336 nM | 1.63 µM | – | – | – | – | > 17.7 µM
C/C=C\C[C@H](O)C/C=C\NC(=O)[C@@H](NC(=O)C#C/C=C\C(C)=C\[C@H](C)[C@@H]1CC=C(OC)C(=O)O1)C(C)(C)C [Compound 80] | > 19000 nM | 93 nM | 0.304 µM | > 19000 nM | 49.4 nM | 0.0949 µM | > 19000 nM | 152 nM | > 19 µM | – | – | – | – | –
CC#CC[C@H](O)C/C=C\NC(=O)[C@@H](NC(=O)\C=C/C=C\C(C)=C\[C@H](C)[C@@H]1CC=C(OC)C(=O)O1)C(C)(C)C [Compound 71] | 8540 nM | 266 nM | 1.84 µM | > 19000 nM | 58.9 nM | 0.175 µM | > 19000 nM | 209 nM | 2.85 µM | – | – | – | – | –
COC1=CC[C@@H]([C@@H](C)/C=C(C)/C=C\C#CCCC(=O)N[C@H](C(=O)N/C=C\C[C@H](C/C=C(\C)Cl)O[Si](c2ccccc2)(c2ccccc2)C(C)(C)C)C(C)(C)C)OC1=O [Compound 98] | – | 111 nM | 0.495 µM | – | 53.2 nM | 0.0701 µM | – | 104 nM | 0.181 µM | – | > 12100 nM | 169 nM | > 12100 nM | –
COC1=CC[C@@H]([C@@H](C)/C=C(C)/C=C\C#CC(=O)N[C@H](C(=O)N/C=C\C[C@H](C/C=C(\C)Cl)OC(N)=O)C(C)(C)C)OC1=O [Compound 66a] | > 16600 nM | 33.1 nM | 0.397 µM | 2810 nM | 12.1 nM | 0.0513 µM | > 16600 nM | 44.7 nM | 0.778 µM | – | – | – | – | –
COC1=CC[C@@H]([C@@H](C)/C=C(C)/C=C\C#CC(=O)N[C@H](C(=O)N/C=C\C[C@H](C/C=C(\C)Cl)O[Si](C)(C)C(C)(C)C)C(C)C)OC1=O [Compound 64b] | – | 680 nM | 3.33 µM | – | 423 nM | 0.65 µM | – | 1330 nM | > 15.1 µM | – | > 15100 nM | 2420 nM | > 15100 nM | –
COC1=CC[C@@H]([C@@H](C)/C=C(C)/C=C\C#CCCC(=O)N[C@H](C(=O)N/C=C\C[C@H](C/C=C(\C)Cl)OC(N)=O)C(C)(C)C)OC1=O [Compound 100] | > 15800 nM | 395 nM | 2.21 µM | 7590 nM | 53.8 nM | 0.301 µM | > 15800 nM | 348 nM | – | > 15.8 µM | – | – | – | –
COC1=CC[C@@H]([C@@H](C)/C=C\C=C/C(=O)N[C@H](C(=O)N/C=C\C[C@@H](O)C/C=C(\C)Cl)C(C)(C)C)OC1=O [Compound 68] | > 19100 nM | 1470 nM | 4.21 µM | > 19100 nM | 459 nM | 0.707 µM | 6500 nM | 784 nM | 1.49 µM | – | – | – | – | –
